Test [1] has as its system reverse passive Arthus reaction (RPAR). The test can be described thus: Reverse Passive Arthus Reaction (RPAR) in guinea pigs, complement mediated model of acute inflammation. The format is in vivo, guinea pig. Conditions: 80 mg/kg iv, 20 min before elicitation; p = 0.001. On the procedure:
(§1) The compounds were evaluated in vitro for their inhibition of human complement (C1-C9) using hemolytic molecular titrations, and the reverse passive Arthus reaction (RPAR) in guinea pigs was chosen as a complement mediated model of acute inflammation to be used to identify compounds with in vivo complement inhibitory activity.

Test [2] has as its system human complement (C1-C9), classical complement pathway. Put plainly: Hemolytic molecular titrations of classical complement activity (lysis of sensitized sheep erythrocytes by normal human serum). The format is biochemical. The note with it: concentration effecting 50% suppression of lysis (Z/Zo=0.5), 37° C., 60 min, read-out: Classical Complement Pathway Inhibition IC50. On the procedure:
as §1
Hemolytic molecular titrations of classical complement activity were performed according to Rapp and Borsos [Molecular Basis of Complement Action, Appleton-Century-Crofts, New York, NY, 1970] and complement inhibition assessed according to Hong et al. (J. Immunol. 1979, Vol. 122, 2418). Operationally, the test compound was maintained in the presence of complement during the lytic reaction of sensitized erythrocytes. Equal volumes (0.2 ml) of normal human serum (NHS), diluted in GVB^++ [Mayer, M. M. in Kabat and Mayer's Experimental Immunochemistry, 2nd Ed.; Charles C. Thomas, Springfield, Ill., 1961, p. 133] to effect lysis of Z=1, and test compound at various concentrations were mixed at 0° C. […] EA (0.2 ml of 1.5×10^8 cells/ml) and 1.8 ml of GVB^++ were added to the reaction mixture followed by incubating at 37° C. for 60 min. The extent of lysis was determined spectrophotometrically at 412 nm. The ratio of treated to untreated (Z/Zo) reaction mixtures was determined as a function of test compound concentration.

Here are results for 3 compounds from patent US4510158A, “2-Phenylindole derivatives, their use as complement inhibitors” (Sterling Drug Inc., priority 1984, dated 1985).

Usually IC50 stands for the concentration that inhibits the measured activity by half.

Regarding `O=C(O)C1CC=C(c2c(-c3ccccc3)[nH]c3ccccc23)CC1` (stereo not shown) [Example 1, 4-(2-Phenyl-1H-indol-3-yl)-3-cyclohexene-1-carboxylic acid], the “RPAR % Inhib.” value in test [1] turned out to be 64 ± 7%. Besides, the IC50 in test [2] is 135 ± 2 µM.

Consider `O=C(O)c1ccc(-c2c(-c3ccccc3)[nH]c3ccccc23)cc1` [Example 15, 4-(2-Phenyl-1H-indol-3-yl)benzoic acid], for which the IC50 in test [2] is 105 ± 4 µM.

Take “Gold sodium thiomalate [reference compound]”: the IC50 in test [2] came to 1070 ± 90 µM.
